The text below walks through data of ChEMBL document CHEMBL1201862, “PubChem BioAssay data set” (2004).

Some test systems named below: COLO 205; EKVX; HCT-15; HOP-92; HT-29; KM12; MOLT-4; Malme-3M; NCI-H226; NCI-H23; OVCAR-4; OVCAR-5; SF-268; SNB-19; SR; UACC-257; HCC 2998; OVCAR-3; SF-539.
What all share (test): growth of human tumour cells (NCI), 48 h

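Five concentrations, 48 hours, 96-well plates. Here, GI50 denotes the concentration required for 50% inhibition of growth.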 Active and inactive are the calls of the source. Rule as the data show it: active = GI50 up to about 1.1 µM and inactive = higher. Where a SMILES comes first, the peptide text is derived from it. The star is where a group is joined. Boc = CC(C)(C)OC(=O)*; OBn = c1ccc(CO*)cc1

For `O=c1[nH]c(-n2[nH]c3c(c2=O)CCCC3)nc(O)c1-c1ccccc1`, the GI50 in the test on COLO 205 was > 100 µM (inactive); in the test on EKVX it was > 100 µM (inactive); with HCT-15 it was over 100 µM; in the test on HOP-92, > 100 µM (inactive); in the test with HT-29, > 100 µM (inactive); in the test with KM12, > 100 µM (inactive). Further, the GI50 in the test on MOLT-4, in the test with Malme-3M, in the test on NCI-H226, in the test with NCI-H23, with OVCAR-4 and with OVCAR-5 was > 100 µM (inactive) in each case. Further, the GI50 in the test on SF-268, in the test with SNB-19, with SR and with UACC-257 was > 100 µM (inactive) in each case.

As to `O=C(O)CCc1c2ccc(=O)c(O)c-2oc2c(O)c(O)ccc12`, the GI50 is > 100 µM (inactive) in the test on COLO 205; 28.8 µM (inactive) in the test on EKVX; 8.55 µM (inactive) with HCC 2998; 79.4 µM in the test with HCT-15; > 100 µM (inactive) in the test with HOP-92; > 100 µM (inactive) in the test with HT-29. Moreover, the GI50 in the test on KM12 was 29.3 µM (inactive); in the test on MOLT-4, 23.3 µM (inactive); in the test on Malme-3M it was 26.4 µM (inactive); with NCI-H23, 61.4 µM (inactive); in the test on OVCAR-3, 91.8 µM (inactive); in the test with OVCAR-4, 46.2 µM (inactive). Besides, the GI50 in the test with OVCAR-5 is > 100 µM (inactive); in the test with SF-268, 32.4 µM (inactive); in the test on SNB-19, > 100 µM (inactive); in the test with SR, 37.2 µM (inactive); in the test on UACC-257 it was > 100 µM (inactive).

Regarding `[O-][N+]1=C2CCC/C(=N/O)C2(O)C2CCCCC21N1CCOCC1` (stereo unspecified), the GI50 in the test on COLO 205 was > 100 µM (inactive); in the test on EKVX, > 100 µM (inactive); with HCC 2998, > 100 µM (inactive); in the test on HCT-15 it was over 100 µM; with HT-29, > 100 µM (inactive); in the test with KM12 it was > 100 µM (inactive). The GI50 in the test with MOLT-4, with Malme-3M, with NCI-H226, in the test on NCI-H23, in the test on OVCAR-3 and in the test on OVCAR-4 was > 100 µM (inactive) throughout. Besides, the GI50 with OVCAR-5, with SF-268, in the test on SF-539, in the test on SNB-19, in the test on SR and with UACC-257 was > 100 µM (inactive) throughout.

With `Cc1cc(C)c2c(=O)n(CC(O)CN3CCN(CCOCCO)CC3)sc2n1` (stereo unspecified), the GI50 in the test with COLO 205 was 17.7 µM (inactive); in the test on EKVX, 18.7 µM (inactive); in the test on HCT-15 it was 42.1 µM; in the test on HOP-92, 19.4 µM (inactive); in the test with HT-29 it was 19.1 µM (inactive); with KM12, 22 µM (inactive). For the same compound, the GI50 in the test with MOLT-4 is 24.5 µM (inactive); in the test with Malme-3M, 18.8 µM (inactive); in the test with NCI-H226, > 100 µM (inactive); with NCI-H23, 15.3 µM (inactive); in the test with OVCAR-3, 22.4 µM (inactive); with OVCAR-4, 17.9 µM (inactive). Further, the GI50 in the test on OVCAR-5 was 18.9 µM (inactive); with SF-268 it was 20.8 µM (inactive); in the test on SF-539, 20 µM (inactive); in the test with SNB-19, 36.5 µM (inactive); in the test on SR it was 25.8 µM (inactive); in the test on UACC-257 it was 12.2 µM (inactive).

Turning to `O=C(/C=C1/Nc2ccc([N+](=O)[O-])cc2N/C1=C/C(=O)c1ccccc1)c1ccccc1`, the GI50 in the test on COLO 205 is 53.6 µM (inactive); in the test with EKVX, 30.8 µM (inactive); with HCC 2998, 55.8 µM (inactive); in the test on HCT-15, 11.5 µM; in the test on HT-29, 71.1 µM (inactive); in the test with KM12, 59.4 µM (inactive). Further, the GI50 was 22.5 µM (inactive) in the test with MOLT-4; 40.8 µM (inactive) with Malme-3M; 23.4 µM (inactive) with NCI-H226; 12.4 µM (inactive) in the test with NCI-H23; 16.7 µM (inactive) in the test with OVCAR-3; 5.6 µM (inactive) with OVCAR-4. Besides, the GI50 in the test with OVCAR-5 was > 100 µM (inactive); in the test on SF-268, 15.2 µM (inactive); in the test on SF-539, 8.2 µM (inactive); in the test with SNB-19, 21.6 µM (inactive); in the test on SR it was 27.5 µM (inactive); in the test with UACC-257, > 100 µM (inactive).

Regarding `CC1(C)C2CCC(N)(C2)C1O` (stereo unspecified), the GI50 in the test on COLO 205 is > 100 µM (inactive); with EKVX, > 100 µM (inactive); in the test with HCC 2998, > 100 µM (inactive); in the test with HCT-15, over 100 µM; with HOP-92 it was > 100 µM (inactive); in the test with KM12, > 100 µM (inactive). For the same compound, the GI50 with MOLT-4, in the test on NCI-H226, in the test on NCI-H23, with OVCAR-3, in the test on OVCAR-4 and in the test on OVCAR-5 was > 100 µM (inactive) each time. The GI50 in the test with SNB-19, in the test on SR and in the test with UACC-257 was > 100 µM (inactive) throughout.

For the compound `C[N+]1(CCN=C=NC2CCCCC2)CCOCC1`, the GI50 with COLO 205 is > 100 µM (inactive); in the test with EKVX, > 100 µM (inactive); in the test with HCT-15 it was over 100 µM; in the test with HOP-92, > 100 µM (inactive); in the test on HT-29, > 100 µM (inactive); in the test with KM12 it was > 100 µM (inactive). Besides, the GI50 in the test with MOLT-4, in the test with Malme-3M, in the test with NCI-H226, with NCI-H23, with OVCAR-3 and in the test with OVCAR-4 was > 100 µM (inactive) throughout. For the same compound, the GI50 in the test with OVCAR-5, in the test on SF-268, in the test with SF-539, in the test with SNB-19, with SR and with UACC-257 was > 100 µM (inactive) throughout.

As to `Cc1ccc(S(=O)(=O)OC2CCN(C)CC2)cc1`, the GI50 in the test with COLO 205 is 21.7 µM (inactive); in the test with EKVX it was > 100 µM (inactive); in the test on HCT-15 it was over 100 µM; in the test with HOP-92, 19.8 µM (inactive); with HT-29, > 100 µM (inactive); with MOLT-4, 18.3 µM (inactive). Further, the GI50 is 19 µM (inactive) in the test with Malme-3M; 33.7 µM (inactive) in the test on NCI-H23; > 100 µM (inactive) in the test with OVCAR-3; > 100 µM (inactive) with OVCAR-4; > 100 µM (inactive) with OVCAR-5; > 100 µM (inactive) with SF-268. The GI50 in the test with SF-539 was 88.7 µM (inactive); with SNB-19 it was > 100 µM (inactive); in the test with SR, 20.5 µM (inactive); in the test on UACC-257, 24.2 µM (inactive).

For `CC(C)CC(NC(=O)OC(C)(C)C)C(=O)N1CCCC1C(=O)OCc1ccccc1` (stereo not drawn) (Boc-Leu-Pro-OBn; configuration not given here), the GI50 with COLO 205 is > 100 µM (inactive); in the test on EKVX, > 100 µM (inactive); in the test with HCT-15, 63.4 µM; in the test with HOP-92, > 100 µM (inactive); with HT-29, 41.4 µM (inactive); in the test with KM12, > 100 µM (inactive). The GI50 in the test with Malme-3M, in the test on NCI-H226, in the test on NCI-H23, in the test with OVCAR-3, in the test on OVCAR-4 and with OVCAR-5 was > 100 µM (inactive) in each case. The GI50 in the test on SF-268 was > 100 µM (inactive); with SF-539, > 100 µM (inactive); in the test with SNB-19 it was > 100 µM (inactive); with SR it was 15.3 µM (inactive); with UACC-257 it was > 100 µM (inactive).

Regarding `Cc1cc(C)nc(NS(=O)(=O)c2ccc(Nc3c4ccccc4nc4c(C(=O)NNCCO)cccc34)cc2)n1`, the GI50 with COLO 205 was > 100 µM (inactive); in the test on EKVX it was > 100 µM (inactive); in the test on HCC 2998, > 100 µM (inactive); in the test on HCT-15, over 100 µM; in the test on HOP-92, > 100 µM (inactive); in the test with HT-29, > 100 µM (inactive). Also, the GI50 is > 100 µM (inactive) in the test with KM12; 30.9 µM (inactive) in the test on MOLT-4; > 100 µM (inactive) with Malme-3M; > 100 µM (inactive) with NCI-H23; 86.9 µM (inactive) with OVCAR-3; > 100 µM (inactive) in the test with OVCAR-4. Also, the GI50 is > 100 µM (inactive) in the test on OVCAR-5; > 100 µM (inactive) with SF-268; > 100 µM (inactive) in the test on SNB-19; 25.4 µM (inactive) in the test on SR; > 100 µM (inactive) with UACC-257.

`O=C(O)Cc1c(O)ccc2ccccc12`: the GI50 in the test on COLO 205 was > 100 µM (inactive); in the test with EKVX, > 100 µM (inactive); in the test on HCT-15, over 100 µM; with HOP-92, > 100 µM (inactive); in the test with HT-29, > 100 µM (inactive); in the test on KM12, > 100 µM (inactive). For the same compound, the GI50 with MOLT-4, in the test on Malme-3M, with NCI-H226, in the test on NCI-H23, in the test with OVCAR-3 and with OVCAR-4 was > 100 µM (inactive) throughout. The GI50 with OVCAR-5, with SF-268, in the test with SF-539, in the test on SNB-19, in the test on SR and in the test with UACC-257 was > 100 µM (inactive) each time.

As to `Cc1cnoc1NS(=O)(=O)c1ccc(Nc2nnc(/C=C/c3c(O)ccc4ccccc34)c(=O)n2N)cc1`, the GI50 with EKVX is 35.9 µM (inactive); with HCT-15, 6.37 µM; with HOP-92 it was 41.3 µM (inactive); in the test on HT-29, 58.6 µM (inactive); in the test with MOLT-4, 0.658 µM (active); in the test on Malme-3M it was 24 µM (inactive). For the same compound, the GI50 is 7.73 µM (inactive) in the test on NCI-H23; 17.3 µM (inactive) in the test on OVCAR-3; 27.9 µM (inactive) in the test on OVCAR-4; 40.1 µM (inactive) in the test with OVCAR-5; 11.3 µM (inactive) in the test with SF-268; 65.2 µM (inactive) with SNB-19. Further, in the test on SR, the GI50 was 21.8 µM (inactive).
